Assay in all cases: relative viability (nuclei count vs DMSO), 5 days (fraction); higher = more cells survive
Compound in the experiment “Doxorubicin + Decitabine”: COc1cccc2c1C(=O)c1c(O)c3c(c(O)c1C2=O)C[C@@](O)(C(=O)CO)C[C@@H]3O[C@H]1C[C@H](N)[C@H](O)[C@H](C)O1 [Doxorubicin] + Nc1ncn([C@H]2C[C@H](O)[C@@H](CO)O2)c(=O)n1 [Decitabine] (partner 2 µM)
An outline of the steps:
(§1)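 A single step with final 0.05% Triton X-100, 1% formaldehyde and 1 ug/ml Hoechst fixed the cells and stained nuclei 5 days after treatment. Lung cancer cell lines in 1536-well plates had been treated by pin tool the day after seeding with one drug alone or a fixed anchor-drug dose plus five library-drug doses (not always all listed) in √10 steps, and nuclei were counted on 4× images. Relative viability is the ratio of nuclei in treated wells to nuclei in vehicle wells, taken as the median of duplicate plates.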

Compound in the experiment “Doxorubicin + Dasatinib”: COc1cccc2c1C(=O)c1c(O)c3c(c(O)c1C2=O)C[C@@](O)(C(=O)CO)C[C@@H]3O[C@H]1C[C@H](N)[C@H](O)[C@H](C)O1 [Doxorubicin] + Cc1nc(Nc2ncc(C(=O)Nc3c(C)cccc3Cl)s2)cc(N2CCN(CCO)CC2)n1 [Dasatinib] (partner 0.075 µM)
An outline of the steps: as §1

Compound in the experiment “Doxorubicin + Vorinostat”: COc1cccc2c1C(=O)c1c(O)c3c(c(O)c1C2=O)C[C@@](O)(C(=O)CO)C[C@@H]3O[C@H]1C[C@H](N)[C@H](O)[C@H](C)O1 [Doxorubicin] + O=C(CCCCCCC(=O)Nc1ccccc1)NO [Vorinostat] (partner 1 µM)
The essentials:
as §1

Compound in the experiment “BAY61-3606 + Vorinostat”: COC1=C(C=C(C=C1)C2=CC3=NC=CN3C(=N2)NC4=C(C=CC=N4)C(=O)N)OC [BAY61-3606] + O=C(CCCCCCC(=O)Nc1ccccc1)NO [Vorinostat] (partner 1 µM)
An outline of the steps:
as §1

Turning to NCI-H358, the relative viability came to 0.206 in the experiment with Doxorubicin + Decitabine (first compound 0.001 µM); 0.17 in the experiment with Doxorubicin + Decitabine (first compound 0.003162 µM); 0.154 with Doxorubicin + Decitabine (first compound 0.01 µM); 0.12 with Doxorubicin + Decitabine (first compound 0.03162 µM); 0.0966 in the experiment with Doxorubicin + Decitabine (first compound 0.1 µM); 0.175 with Doxorubicin + Dasatinib (first compound 0.001 µM). The relative viability with Doxorubicin + Dasatinib (first compound 0.003162 µM) stood at 0.161; in the experiment with Doxorubicin + Dasatinib (first compound 0.01 µM) it was 0.159; in the experiment with Doxorubicin + Dasatinib (first compound 0.03162 µM), 0.0904; with Doxorubicin + Dasatinib (first compound 0.1 µM) it was 0.0827; with Doxorubicin + Vorinostat (first compound 0.001 µM), 0.838; with Doxorubicin + Vorinostat (first compound 0.003162 µM) it was 0.679. Besides, the relative viability with Doxorubicin + Vorinostat (first compound 0.01 µM) is 0.407; with Doxorubicin + Vorinostat (first compound 0.03162 µM), 0.138; with Doxorubicin + Vorinostat (first compound 0.1 µM), 0.101; in the experiment with BAY61-3606 + Vorinostat (first compound 0.02 µM) it was 0.697; with BAY61-3606 + Vorinostat (first compound 0.06325 µM), 0.759; with BAY61-3606 + Vorinostat (first compound 0.2 µM), 0.631. In addition, the values for the relative viability in the experiment with BAY61-3606 + Vorinostat (first compound 0.6325 µM) and with BAY61-3606 + Vorinostat (first compound 2 µM) were 0.658 and 0.386, respectively.

As for NCI-H522, the relative viability came to 0.647 with Doxorubicin + Decitabine (first compound 0.001 µM); 0.704 in the experiment with Doxorubicin + Decitabine (first compound 0.003162 µM); 0.634 with Doxorubicin + Decitabine (first compound 0.01 µM); 0.683 with Doxorubicin + Decitabine (first compound 0.03162 µM); 0.601 with Doxorubicin + Decitabine (first compound 0.1 µM); 0.724 with Doxorubicin + Dasatinib (first compound 0.001 µM). Moreover, the relative viability was 1.04 in the experiment with Doxorubicin + Dasatinib (first compound 0.003162 µM); 0.873 with Doxorubicin + Dasatinib (first compound 0.01 µM); 0.776 with Doxorubicin + Dasatinib (first compound 0.03162 µM); 1 in the experiment with Doxorubicin + Dasatinib (first compound 0.1 µM); 0.869 in the experiment with Doxorubicin + Vorinostat (first compound 0.001 µM); 0.93 with Doxorubicin + Vorinostat (first compound 0.003162 µM). In addition, the relative viability in the experiment with Doxorubicin + Vorinostat (first compound 0.01 µM) is 0.716; with Doxorubicin + Vorinostat (first compound 0.03162 µM), 0.786; with Doxorubicin + Vorinostat (first compound 0.1 µM) it was 0.878; in the experiment with BAY61-3606 + Vorinostat (first compound 0.02 µM) it was 0.896; in the experiment with BAY61-3606 + Vorinostat (first compound 0.06325 µM), 0.869; with BAY61-3606 + Vorinostat (first compound 0.2 µM) it was 0.839. Moreover, the relative viability with BAY61-3606 + Vorinostat (first compound 0.6325 µM) came to 0.733; with BAY61-3606 + Vorinostat (first compound 2 µM) it was 0.661.

As for NCI-H1395, the relative viability in the experiment with Doxorubicin + Decitabine (first compound 0.001 µM) was 0.724; with Doxorubicin + Decitabine (first compound 0.003162 µM), 0.666; in the experiment with Doxorubicin + Decitabine (first compound 0.01 µM) it was 0.634; in the experiment with Doxorubicin + Decitabine (first compound 0.03162 µM), 0.614; with Doxorubicin + Decitabine (first compound 0.1 µM), 0.651; in the experiment with Doxorubicin + Dasatinib (first compound 0.001 µM), 0.415. Moreover, the relative viability in the experiment with Doxorubicin + Dasatinib (first compound 0.003162 µM) was 0.422; with Doxorubicin + Dasatinib (first compound 0.01 µM) it was 0.389; in the experiment with Doxorubicin + Dasatinib (first compound 0.03162 µM) it was 0.398; with Doxorubicin + Dasatinib (first compound 0.1 µM), 0.376; with Doxorubicin + Vorinostat (first compound 0.001 µM), 0.551; with Doxorubicin + Vorinostat (first compound 0.003162 µM), 0.688. In addition, the relative viability with Doxorubicin + Vorinostat (first compound 0.01 µM) came to 0.825; in the experiment with Doxorubicin + Vorinostat (first compound 0.03162 µM) it was 0.572; with Doxorubicin + Vorinostat (first compound 0.1 µM), 0.493; with BAY61-3606 + Vorinostat (first compound 0.02 µM), 0.736; with BAY61-3606 + Vorinostat (first compound 0.06325 µM), 0.705; with BAY61-3606 + Vorinostat (first compound 0.2 µM), 0.595. The relative viability was 0.705 with BAY61-3606 + Vorinostat (first compound 0.6325 µM) and 0.706 with BAY61-3606 + Vorinostat (first compound 2 µM).

LC-2-ad: the relative viability with Doxorubicin + Decitabine (first compound 0.001 µM) is 0.764; with Doxorubicin + Decitabine (first compound 0.003162 µM), 0.842; in the experiment with Doxorubicin + Decitabine (first compound 0.01 µM), 0.831; with Doxorubicin + Decitabine (first compound 0.03162 µM) it was 0.92; with Doxorubicin + Decitabine (first compound 0.1 µM), 0.759; with Doxorubicin + Dasatinib (first compound 0.001 µM), 0.691. Further, the relative viability with Doxorubicin + Dasatinib (first compound 0.003162 µM) was 0.602; in the experiment with Doxorubicin + Dasatinib (first compound 0.01 µM), 0.489; in the experiment with Doxorubicin + Dasatinib (first compound 0.03162 µM) it was 0.209; with Doxorubicin + Dasatinib (first compound 0.1 µM) it was 0.161; in the experiment with Doxorubicin + Vorinostat (first compound 0.001 µM), 0.699; with Doxorubicin + Vorinostat (first compound 0.003162 µM), 0.714. The relative viability in the experiment with Doxorubicin + Vorinostat (first compound 0.01 µM) is 0.624; in the experiment with Doxorubicin + Vorinostat (first compound 0.03162 µM), 0.637; in the experiment with Doxorubicin + Vorinostat (first compound 0.1 µM) it was 0.664; with BAY61-3606 + Vorinostat (first compound 0.02 µM), 0.821; with BAY61-3606 + Vorinostat (first compound 0.06325 µM), 0.743; in the experiment with BAY61-3606 + Vorinostat (first compound 0.2 µM), 0.588. Besides, the relative viability is 0.707 with BAY61-3606 + Vorinostat (first compound 0.6325 µM) and 0.721 with BAY61-3606 + Vorinostat (first compound 2 µM).

For the cell line SK-MES-1, the relative viability in the experiment with Doxorubicin + Decitabine (first compound 0.001 µM) was 0.353; with Doxorubicin + Decitabine (first compound 0.003162 µM) it was 0.328; with Doxorubicin + Decitabine (first compound 0.01 µM) it was 0.261; in the experiment with Doxorubicin + Decitabine (first compound 0.03162 µM), 0.196; in the experiment with Doxorubicin + Decitabine (first compound 0.1 µM), 0.194; with Doxorubicin + Dasatinib (first compound 0.001 µM) it was 0.458. Also, the relative viability with Doxorubicin + Dasatinib (first compound 0.003162 µM) stood at 0.396; with Doxorubicin + Dasatinib (first compound 0.01 µM), 0.325; with Doxorubicin + Dasatinib (first compound 0.03162 µM) it was 0.141; in the experiment with Doxorubicin + Dasatinib (first compound 0.1 µM) it was 0.128; with Doxorubicin + Vorinostat (first compound 0.001 µM) it was 1.04; with Doxorubicin + Vorinostat (first compound 0.003162 µM), 1.15. The relative viability amounted to 0.996 in the experiment with Doxorubicin + Vorinostat (first compound 0.01 µM); 0.251 with Doxorubicin + Vorinostat (first compound 0.03162 µM); 0.233 with Doxorubicin + Vorinostat (first compound 0.1 µM); 1.14 in the experiment with BAY61-3606 + Vorinostat (first compound 0.02 µM); 1.13 with BAY61-3606 + Vorinostat (first compound 0.06325 µM); 1.05 with BAY61-3606 + Vorinostat (first compound 0.2 µM). Further, the relative viability was 1.11 with BAY61-3606 + Vorinostat (first compound 0.6325 µM) and 0.86 in the experiment with BAY61-3606 + Vorinostat (first compound 2 µM).

As for SW 1573, the relative viability with Doxorubicin + Decitabine (first compound 0.001 µM) was found to be 0.566; with Doxorubicin + Decitabine (first compound 0.003162 µM), 0.417; in the experiment with Doxorubicin + Decitabine (first compound 0.01 µM), 0.166; with Doxorubicin + Decitabine (first compound 0.03162 µM), 0.129; with Doxorubicin + Decitabine (first compound 0.1 µM) it was 0.098; in the experiment with Doxorubicin + Dasatinib (first compound 0.001 µM), 0.544. Also, the relative viability worked out at 0.452 with Doxorubicin + Dasatinib (first compound 0.003162 µM); 0.174 with Doxorubicin + Dasatinib (first compound 0.01 µM); 0.106 with Doxorubicin + Dasatinib (first compound 0.03162 µM); 0.0634 with Doxorubicin + Dasatinib (first compound 0.1 µM); 0.725 with Doxorubicin + Vorinostat (first compound 0.001 µM); 0.481 in the experiment with Doxorubicin + Vorinostat (first compound 0.003162 µM). Moreover, the relative viability was determined as 0.233 with Doxorubicin + Vorinostat (first compound 0.01 µM); 0.109 with Doxorubicin + Vorinostat (first compound 0.03162 µM); 0.104 with Doxorubicin + Vorinostat (first compound 0.1 µM); 0.817 in the experiment with BAY61-3606 + Vorinostat (first compound 0.02 µM); 0.643 with BAY61-3606 + Vorinostat (first compound 0.06325 µM); 0.578 with BAY61-3606 + Vorinostat (first compound 0.2 µM). The relative viability in the experiment with BAY61-3606 + Vorinostat (first compound 0.6325 µM) was determined as 0.815; in the experiment with BAY61-3606 + Vorinostat (first compound 2 µM) it was 0.344.

These data come from the supplement of paper PMC10307832.
